For test [1], the target named is T1, AHR (Homo sapiens, UniProt P35869).
T1 construct: U87 MG glioblastoma cells (ATCC #HTB-14) endogenously expressing AHR; endogenous in cells; host or cells: U87 MG glioblastoma cells (ATCC #HTB-14)
T1 sequence (P35869 11-848): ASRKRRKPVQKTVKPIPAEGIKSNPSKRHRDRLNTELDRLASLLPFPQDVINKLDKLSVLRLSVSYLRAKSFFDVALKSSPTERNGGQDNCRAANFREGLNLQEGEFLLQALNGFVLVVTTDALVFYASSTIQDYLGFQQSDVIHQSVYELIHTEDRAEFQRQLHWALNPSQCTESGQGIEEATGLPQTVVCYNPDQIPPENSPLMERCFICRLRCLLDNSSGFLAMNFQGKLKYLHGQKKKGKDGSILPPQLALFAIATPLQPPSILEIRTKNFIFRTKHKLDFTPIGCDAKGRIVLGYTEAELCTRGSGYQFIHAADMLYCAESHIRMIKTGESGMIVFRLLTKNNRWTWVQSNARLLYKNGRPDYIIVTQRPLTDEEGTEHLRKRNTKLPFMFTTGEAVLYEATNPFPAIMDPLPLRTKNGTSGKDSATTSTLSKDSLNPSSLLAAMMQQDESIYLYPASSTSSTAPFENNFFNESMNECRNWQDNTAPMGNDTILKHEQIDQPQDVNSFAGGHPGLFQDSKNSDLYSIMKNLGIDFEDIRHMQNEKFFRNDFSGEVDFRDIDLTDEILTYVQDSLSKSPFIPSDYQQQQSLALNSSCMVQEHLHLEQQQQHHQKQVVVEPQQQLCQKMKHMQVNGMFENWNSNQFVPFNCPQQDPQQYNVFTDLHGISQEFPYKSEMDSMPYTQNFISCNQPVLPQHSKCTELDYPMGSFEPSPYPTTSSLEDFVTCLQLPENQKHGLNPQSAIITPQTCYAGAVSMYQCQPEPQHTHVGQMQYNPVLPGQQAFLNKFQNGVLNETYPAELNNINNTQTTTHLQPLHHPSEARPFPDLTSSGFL
The test can be described thus: In vitro assay 1: antagonism in human cell line (AHR transactivation, firefly luciferase reporter, kynurenic acid prestimulated). As to conditions: AHR Antagonism Human IC50 [M]. Type of test: cell-based. A digest of the protocol: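 U87 MG glioblastoma cells with endogenous AHR, stably carrying a DRE-driven firefly luciferase reporter and constitutive Renilla reporter, prestimulated with kynurenic acid before compound addition. Firefly and Renilla read by dual luciferase; Renilla flags toxicity; normalized to controls (150 μM kynurenic acid + 5 μM staurosporine as full inhibition); repeat values averaged or median.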
For orientation: Reporter assays use an easily measured gene product as a stand-in for the process of interest.

Test [2] addresses T2, AHR (Mus musculus, UniProt P30561).
T2 sequence (P30561 1-848 P471L/N533S/M589L): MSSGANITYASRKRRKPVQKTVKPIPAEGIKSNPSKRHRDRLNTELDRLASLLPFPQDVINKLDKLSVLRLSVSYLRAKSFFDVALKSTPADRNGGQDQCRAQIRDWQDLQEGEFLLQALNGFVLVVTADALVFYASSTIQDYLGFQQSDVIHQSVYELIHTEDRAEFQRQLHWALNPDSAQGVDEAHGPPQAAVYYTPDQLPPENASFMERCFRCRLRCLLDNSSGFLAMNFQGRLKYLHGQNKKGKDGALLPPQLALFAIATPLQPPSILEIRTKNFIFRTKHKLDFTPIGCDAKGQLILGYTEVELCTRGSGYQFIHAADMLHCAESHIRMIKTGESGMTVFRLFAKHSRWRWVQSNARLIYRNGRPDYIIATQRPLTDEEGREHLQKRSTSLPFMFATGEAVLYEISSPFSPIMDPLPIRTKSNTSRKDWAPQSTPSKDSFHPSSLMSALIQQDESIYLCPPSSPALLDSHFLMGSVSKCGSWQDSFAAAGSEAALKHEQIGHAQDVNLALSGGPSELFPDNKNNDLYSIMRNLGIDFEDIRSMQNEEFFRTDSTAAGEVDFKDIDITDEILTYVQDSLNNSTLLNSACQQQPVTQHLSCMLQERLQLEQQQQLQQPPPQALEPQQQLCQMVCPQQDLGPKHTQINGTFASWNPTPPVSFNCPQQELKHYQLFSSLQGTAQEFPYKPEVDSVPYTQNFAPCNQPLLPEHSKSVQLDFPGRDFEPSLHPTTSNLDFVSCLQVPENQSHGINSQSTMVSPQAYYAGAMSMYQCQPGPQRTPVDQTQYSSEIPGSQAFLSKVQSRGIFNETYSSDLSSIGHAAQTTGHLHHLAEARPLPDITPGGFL
The experiment in a line: In vitro assay 3: antagonism in mouse cell line (AHR transactivation, firefly luciferase reporter, kynurenic acid prestimulated). The format is cell-based. A digest of the protocol: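 Cells were first stimulated with kynurenic acid, then exposed to test compound, after which firefly luciferase from a DRE-containing AHR reporter was read out. Signal was scaled between positive and negative controls. Cells not given kynurenic acid provided the inhibition reference.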

Where [3] appears, read: mouse Hepa 1c1c7 cells, 200 μM kynurenic acid, 20 hours, read-out: AHR Antagonism Mouse IC50.
Setting [4] is: Hepa 1c1c7 cells, 200 μM kynurenic acid, 20 hours, firefly luciferase reporter, read-out: AHR Antagonism Mouse IC50.
The mark [5] stands for this setting: read-out: AHR Antagonism Mouse IC50, mouse Hepa 1c1c7 cells, 200 μM kynurenic acid, 20 hours.

pIC50: −log10 of the molar value. Read-outs that look alike come from different tables or passages of the source.

By IC50 is commonly meant the concentration that inhibits the measured activity by half. The low end stands for greater potency, the high end for weaker potency. Usually pIC50 stands for the negative decadic logarithm of the IC50, by convention in mol/L. In the case of `COc1ccc(-c2nc3c4cccc(Br)c4nc(N[C@@H]4COCCNC4=O)n3n2)cc1` [Example 699, (6R)-6-{[7-bromo-2-(4-methoxyphenyl)[1,2,4]triazolo[1,5-c]quinazolin-5-yl]amino}-1,4-oxazepan-5-one], it took 9.83e-10 M to reach half-maximal inhibition in test [1] (IC50). Besides, in test [2] (setting [3]), the pIC50 was 8.83.
In turn, `CC[C@@H](Nc1nc2ccccc2c2nc(-c3ccccc3OC(F)(F)F)nn12)C(N)=O` [Example 469, (2R)-2-({2-[2-(trifluoromethoxy)phenyl][1,2,4]triazolo[1,5-c]quinazolin-5-yl}amino)butanamide] came in with an IC50 in test [1] of 1.64e-08 M. Further, the pIC50 in test [2] (setting [3]) is 8.92.
`O=C1NCCCC[C@@H]1Nc1nc2ccccc2c2nc(-c3cc(Br)ccc3OC(F)(F)F)nn12` [Example 506, (3S)-3-({2-[5-bromo-2-(trifluoromethoxy)phenyl][1,2,4]triazolo[1,5-c]quinazolin-5-yl}amino)azepan-2-one] displayed an IC50 in test [1] of over 2e-05 M. For the same molecule, the pIC50 in test [2] (setting [3]) was under 4.70.
For `COc1ccc(-c2nc3c4cccc(Br)c4nc(N[C@H](C)C(=O)N4CCN(C(=O)OC(C)(C)C)CC4)n3n2)cc1` [Example 883, tert-butyl 4-{N-[7-bromo-2-(4-methoxyphenyl)[1,2,4]triazolo[1,5-c]quinazolin-5-yl]-D-alanyl}piperazine-1-carboxylate], inhibition in test [1] (firefly luciferase reporter) was half-maximal at 5.84e-09 M (IC50). Moreover, the pIC50 in test [2] (setting [4]) was 8.11.
In test [1], `COc1cccc(-c2nc3c4cc(F)ccc4nc(N[C@H]4CCCCNC4=O)n3n2)c1` [Example 160, (3S)-3-{[9-fluoro-2-(3-methoxyphenyl)[1,2,4]triazolo[1,5-c]quinazolin-5-yl]amino}azepan-2-one] had an IC50 of 1.43e-07 M. In addition, in test [2] (setting [3]), the pIC50 was 7.81.
Turning to `CC[C@H](Nc1nc2c(Br)cccc2c2nc(-c3ccc(OC)cc3OC(F)(F)F)nn12)C(N)=O` [Example 568, (2S)-2-({7-bromo-2-[4-methoxy-2-(trifluoromethoxy)phenyl][1,2,4]triazolo[1,5-c]quinazolin-5-yl}amino)butanamide], half-maximal inhibition in test [1] (IC50) was put at 3.31e-07 M. Besides, in test [2] (setting [5]), the pIC50 is 7.52.
In test [1], `COc1ccc(-c2nc3c4cccc(OCCC(F)(F)F)c4nc(N[C@@H]4CCCCNC4=O)n3n2)cc1` [Example 670, (3R)-3-{[2-(4-methoxyphenyl)-7-(3,3,3-trifluoropropoxy)[1,2,4]triazolo[1,5-c]quinazolin-5-yl]amino}azepan-2-one] yielded a half-maximal inhibitory concentration (IC50) of 2.78e-07 M. For the same molecule, in test [2] (setting [3]), the pIC50 is 6.80.
Molecule `CN(C)c1cccc2c1nc(N[C@@H]1CCCCNC1=O)n1nc(-c3cnn(C)c3)nc21` [Example 828, (3R)-3-{[7-(dimethyalmino)-2-(1-methyl-1H-pyrazol-4-yl)[1,2,4]triazolo[1,5-c]quinazolin-5-yl]amino}azepan-2-one] came in with a half-maximal inhibitory concentration (IC50) in test [1] (firefly luciferase reporter) of 1.78e-07 M. In addition, in test [2] (setting [4]), the pIC50 is 4.87.
For the molecule `Cn1cc(-c2nc3c4cccc(S(C)(=O)=O)c4nc(N[C@@H]4CNCCNC4=O)n3n2)cn1` [Example 937, (6R)-6-{[7-(methanesulfonyl)-2-(1-methyl-1H-pyrazol-4-yl)[1,2,4]triazolo[1,5-c]quinazolin-5-yl]amino}-1,4-diazepan-5-one], in test [1] (firefly luciferase reporter), the IC50 is over 2e-05 M. In addition, the pIC50 in test [2] (setting [4]) is under 4.70.
Turning to `COC(=O)N1CCN(C(=O)[C@@H](C)Nc2nc3c(Br)cccc3c3nc(-c4ccc(OC)cc4)nn23)CC1` [Example 894, methyl 4-{N-[7-bromo-2-(4-methoxyphenyl)[1,2,4]triazolo[1,5-c]quinazolin-5-yl]-D-alanyl}piperazine-1-carboxylate], in test [1] (firefly luciferase reporter), the IC50 was 2.01e-09 M. Further, in test [2] (setting [4]), the pIC50 was 8.88.
In the case of `COc1ccc(-c2nc3c4cccc(C(C)C)c4nc(N[C@@H]4CCCCNC4=O)n3n2)cc1` [Example 587, (3R)-3-{[2-(4-methoxyphenyl)-7-(propan-2-yl)[1,2,4]triazolo[1,5-c]quinazolin-5-yl]amino}azepan-2-one], the IC50 in test [1] was determined as 7.7e-09 M. In addition, the pIC50 in test [2] (setting [3]) is 7.69.
Molecule `COc1ccc(-c2nc3c4ccc(OC)cc4nc(N[C@@H]4CCCCNC4=O)n3n2)cc1` [Example 549, (3R)-3-{[8-methoxy-2-(4-methoxyphenyl)[1,2,4]triazolo[1,5-c]quinazolin-5-yl]amino}azepan-2-one] had an IC50 in test [1] of 7.33e-08 M. For the same molecule, the pIC50 in test [2] (setting [3]) was 4.76.
In test [1] (firefly luciferase reporter), `O=C1NCCNC[C@H]1Nc1nc2c(Br)cccc2c2nc(-c3cn[nH]c3)nn12` [Example 976, (6R)-6-{[7-bromo-2-(1H-pyrazol-4-yl)[1,2,4]triazolo[1,5-c]quinazolin-5-yl]amino}-1,4-diazepan-5-one] had a 50% inhibitory concentration (IC50) of 3.11e-06 M. In test [2] (setting [4]), the pIC50 is 5.33.
In test [1], `CCCNC(=O)[C@@H](C)Nc1nc2ccccc2c2nc(-c3cc(F)ccc3OC(F)(F)F)nn12` [Example 495, N^2-{2-[5-fluoro-2-(trifluoromethoxy)phenyl][1,2,4]triazolo[1,5-c]quinazolin-5-yl}-N-propyl-D-alaninamide] returned an IC50 of 7.03e-08 M. Moreover, in test [2] (setting [3]), the pIC50 was 7.88.
In test [1] (firefly luciferase reporter), `O=C1NCCCC[C@H]1Nc1nc2c(Cl)cccc2c2nc(-c3cnn(C4CC4)c3)nn12` [Example 816, (3R)-3-{[7-chloro-2-(1-cyclopropyl-1H-pyrazol-4-yl)[1,2,4]triazolo[1,5-c]quinazolin-5-yl]amino}azepan-2-one] showed an IC50 of 1.05e-09 M. The pIC50 in test [2] (setting [4]) was 9.00.
As to `O=C1NCCCC[C@H]1Nc1nc2ccccc2c2nc(-c3ccc(Br)cc3Cl)nn12` [Example 200, (3R)-3-{[2-(4-bromo-2-chlorophenyl)[1,2,4]triazolo[1,5-c]quinazolin-5-yl]amino}azepan-2-one], in test [1], the half-inhibitory concentration (IC50) worked out at 2.87e-09 M. The negative-log IC50 (pIC50) in test [2] (setting [3]) was under 4.70.
In the same order, the values of `Cn1cc(-c2nc3c4c(Cl)cccc4nc(N[C@@H]4CNCCNC4=O)n3n2)cn1` [Example 417] are 1.11e-06 M and 5.14.
For the molecule `O=C1NCC[C@H]1Nc1nc2ccccc2c2nc(-c3cccc(OC(F)(F)F)c3)nn12` [Example 310, (3R)-3-({2-[3-(trifluoromethoxy)phenyl][1,2,4]triazolo[1,5-c]quinazolin-5-yl}amino)pyrrolidin-2-one], 9.98e-08 M corresponded to half-maximal inhibition in test [1] (IC50). Besides, in test [2] (setting [3]), the pIC50 was 7.22.
Turning to `O=C1NCCCC[C@H]1Nc1nc2c(F)cccc2c2nc(-c3cccc(F)c3)nn12` [Example 137, (3R)-3-{[7-fluoro-2-(3-fluorophenyl)[1,2,4]triazolo[1,5-c]quinazolin-5-yl]amino}azepan-2-one], in test [1], the IC50 was determined as 2.16e-09 M. The pIC50 in test [2] (setting [5]) was 9.08.
The molecule `O=C1NCCNC[C@H]1Nc1nc2ccccc2c2nc(-c3cccc(Cl)c3Cl)nn12` [Example 263, (6R)-6-{[2-(2,3-dichlorophenyl)[1,2,4]triazolo[1,5-c]quinazolin-5-yl]amino}-1,4-diazepan-5-one] showed an IC50 in test [1] of 3.86e-07 M. Further, the pIC50 in test [2] (setting [3]) is 8.05.

Values taken from patent publication US20230113037A1 (Bayer Aktiengesellschaft, priority 2019, published 2023).
